# From PubChem BioAssay AID248 (DTP/NCI, 2004)
# Inconclusive results and toxic doses are left out.
# System: L1210 leukemia ip in BDF1 mice, survival T/C
# Experiment: NCI In Vivo Anticancer Drug Screen. Data for tumor model L1210 Leukemia (intraperitoneal) in B6D2F1 (BDF1) mice
# Conditions: higher = longer survival
# Method in brief: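 Transplanted-tumor mice were given test agent; controls received vehicle only. Survival readings from the two groups were divided (treated over control).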
# [1] = endpoint: mean survival time, dose: 100.0 mg/kg/injection, schedule: Q04DX003 (ip), vehicle: saline
# [2] = endpoint: mean survival time, dose: 200.0 mg/kg/injection, schedule: Q04DX003 (ip), vehicle: saline
# [3] = endpoint: mean survival time, dose: 400.0 mg/kg/injection, schedule: Q04DX003 (ip), vehicle: saline
# [4] = endpoint: mean survival time, dose: 100.0 mg/kg/injection, schedule: Q04DX003 (ip), vehicle: Klucel (hydroxypropylcellulose) (HPC)
# [5] = endpoint: mean survival time, dose: 200.0 mg/kg/injection, schedule: Q04DX003 (ip), vehicle: Klucel (hydroxypropylcellulose) (HPC)
# [6] = endpoint: mean survival time, dose: 100.0 mg/kg/injection, schedule: Q01DX001 (ip), vehicle: saline
# [7] = endpoint: mean survival time, dose: 200.0 mg/kg/injection, schedule: Q01DX001 (ip), vehicle: saline
# [8] = endpoint: mean survival time, dose: 400.0 mg/kg/injection, schedule: Q01DX001 (ip), vehicle: saline
# [9] = endpoint: mean survival time, dose: 75.0 mg/kg/injection, schedule: Q01DX001 (ip), vehicle: saline
# [10] = endpoint: mean survival time, dose: 75.0 mg/kg/injection, schedule: Q04DX003 (ip), vehicle: saline
# [11] = endpoint: mean survival time, dose: 150.0 mg/kg/injection, schedule: Q01DX001 (ip), vehicle: saline
# [12] = endpoint: mean survival time, dose: 150.0 mg/kg/injection, schedule: Q04DX003 (ip), vehicle: saline
# [13] = endpoint: mean survival time, dose: 100.0 mg/kg/injection, schedule: Q04DX003 (ip), vehicle: saline with Tween-80
# [14] = endpoint: mean survival time, dose: 200.0 mg/kg/injection, schedule: Q04DX003 (ip), vehicle: saline with Tween-80
structure (smiles),measurement,setting,value
NNC(=O)CCCCC(=O)NN,T/C,[1],100 % of control
same,T/C,[2],97 % of control
same,T/C,[3],100 % of control
CC[N+](C)(CC)CCC[N+]1(C)CC2CC=CCC2C1 (stereo unspecified),T/C,"endpoint: mean survival time, dose: 55.0 mg/kg/injection, schedule: Q01DX Z (ip), vehicle: saline",103 % of control
same,T/C,"endpoint: mean survival time, dose: 83.0 mg/kg/injection, schedule: Q01DX Z (ip), vehicle: saline",97 % of control
same,T/C,"endpoint: mean survival time, dose: 125.0 mg/kg/injection, schedule: Q01DX Z (ip), vehicle: saline",96 % of control
Cc1ccc(S(=O)(=O)NC(=O)c2c3ccccc3cc3ccccc23)cc1,T/C,"endpoint: mean survival time, dose: 100.0 mg/kg/injection, schedule: Q01DX001 (ip), vehicle: acetone",104 % of control
same,T/C,"endpoint: mean survival time, dose: 200.0 mg/kg/injection, schedule: Q01DX001 (ip), vehicle: acetone",104 % of control
same,T/C,"endpoint: mean survival time, dose: 400.0 mg/kg/injection, schedule: Q01DX001 (ip), vehicle: acetone",96 % of control
CC1(C)C(OS(C)(=O)=O)C(C)(C)C1OS(C)(=O)=O (stereo unspecified),T/C,"endpoint: mean survival time, dose: 50.0 mg/kg/injection, schedule: Q01DX001 (ip), vehicle: carboxymethylcellulose (CMC)",111 % of control
same,T/C,"endpoint: mean survival time, dose: 100.0 mg/kg/injection, schedule: Q01DX001 (ip), vehicle: carboxymethylcellulose (CMC)",121 % of control
same,T/C,"endpoint: mean survival time, dose: 100.0 mg/kg/injection, schedule: Q01DX001 (sc), vehicle: carboxymethylcellulose (CMC)",108 % of control
same,T/C,"endpoint: mean survival time, dose: 200.0 mg/kg/injection, schedule: Q01DX001 (ip), vehicle: carboxymethylcellulose (CMC)",100 % of control
same,T/C,"endpoint: mean survival time, dose: 200.0 mg/kg/injection, schedule: Q01DX001 (sc), vehicle: carboxymethylcellulose (CMC)",108 % of control
same,T/C,"endpoint: mean survival time, dose: 400.0 mg/kg/injection, schedule: Q01DX001 (ip), vehicle: carboxymethylcellulose (CMC)",100 % of control
same,T/C,"endpoint: mean survival time, dose: 400.0 mg/kg/injection, schedule: Q01DX001 (sc), vehicle: carboxymethylcellulose (CMC)",100 % of control
CC1(C)Cc2ccccc2C(c2ccccn2)=N1,T/C,[4],96 % of control
same,T/C,[5],112 % of control
same,T/C,"endpoint: mean survival time, dose: 400.0 mg/kg/injection, schedule: Q04DX003 (ip), vehicle: Klucel (hydroxypropylcellulose) (HPC)",112 % of control
CC(C)OC(=O)COc1cc(F)c(Cl)cc1Cl,T/C,"endpoint: mean survival time, dose: 100.0 mg/kg/injection, schedule: Q04DX002 (ip), vehicle: Klucel (hydroxypropylcellulose) (HPC)",102 % of control
same,T/C,"endpoint: mean survival time, dose: 200.0 mg/kg/injection, schedule: Q04DX002 (ip), vehicle: Klucel (hydroxypropylcellulose) (HPC)",95 % of control
same,T/C,"endpoint: mean survival time, dose: 400.0 mg/kg/injection, schedule: Q04DX002 (ip), vehicle: Klucel (hydroxypropylcellulose) (HPC)",102 % of control
CCCCCCCCCCCC[N+](C)(C)C,T/C,"endpoint: mean survival time, dose: 10.0 mg/kg/injection, schedule: Q01DX009 (ip), vehicle: saline",104 % of control
same,T/C,"endpoint: mean survival time, dose: 20.0 mg/kg/injection, schedule: Q01DX009 (ip), vehicle: saline",105 % of control
Cc1n(C(C)C)c2c([n+]1C)C(=O)c1ccccc1C2=O,T/C,"endpoint: mean survival time, dose: 0.39 mg/kg/injection, schedule: Q01DX009 (ip), vehicle: saline",106 % of control
same,T/C,"endpoint: mean survival time, dose: 0.78 mg/kg/injection, schedule: Q01DX009 (ip), vehicle: saline",98 % of control
same,T/C,"endpoint: mean survival time, dose: 1.56 mg/kg/injection, schedule: Q01DX009 (ip), vehicle: saline",101 % of control
same,T/C,"endpoint: mean survival time, dose: 1.56 mg/kg/injection, schedule: Q04DX003 (ip), vehicle: acetone",95 % of control
same,T/C,"endpoint: mean survival time, dose: 2.33 mg/kg/injection, schedule: Q01DX009 (ip), vehicle: acetone",88 % of control
same,T/C,"endpoint: mean survival time, dose: 3.54 mg/kg/injection, schedule: Q01DX009 (ip), vehicle: acetone",92 % of control
C/C=C/C(OCC)OCC,T/C,"endpoint: mean survival time, dose: 25.0 mg/kg/injection, schedule: Q01DX009 (ip), vehicle: water",105 % of control
same,T/C,"endpoint: mean survival time, dose: 50.0 mg/kg/injection, schedule: Q01DX009 (ip), vehicle: water",111 % of control
same,T/C,"endpoint: mean survival time, dose: 100.0 mg/kg/injection, schedule: Q01DX009 (ip), vehicle: water",106 % of control
CCC1(O)C(=O)OCc2c1cc(-c1ccccc1)n(C)c2=O (stereo unspecified),T/C,"endpoint: mean survival time, dose: 25.0 mg/kg/injection, schedule: Q01DX001 (ip), vehicle: other",101 % of control
same,T/C,"endpoint: mean survival time, dose: 50.0 mg/kg/injection, schedule: Q01DX001 (ip), vehicle: other",113 % of control
same,T/C,"endpoint: mean survival time, dose: 100.0 mg/kg/injection, schedule: Q01DX001 (ip), vehicle: other",101 % of control
same,T/C,"endpoint: mean survival time, dose: 200.0 mg/kg/injection, schedule: Q01DX001 (ip), vehicle: other",98 % of control
Cc1ccc(Cl)c(Br)c1,T/C,[6],94 % of control
same,T/C,[7],96 % of control
same,T/C,[8],107 % of control
Brc1csc2ncccc12,T/C,"endpoint: mean survival time, dose: 50.0 mg/kg/injection, schedule: Q01DX009 (ip), vehicle: Klucel (hydroxypropylcellulose) (HPC)",102 % of control
same,T/C,"endpoint: mean survival time, dose: 100.0 mg/kg/injection, schedule: Q01DX009 (ip), vehicle: Klucel (hydroxypropylcellulose) (HPC)",101 % of control
same,T/C,[4],97 % of control
same,T/C,"endpoint: mean survival time, dose: 200.0 mg/kg/injection, schedule: Q01DX009 (ip), vehicle: Klucel (hydroxypropylcellulose) (HPC)",96 % of control
same,T/C,[5],100 % of control
CC(O)c1cccc(N(C)C)c1 (stereo unspecified),T/C,"endpoint: mean survival time, dose: 50.0 mg/kg/injection, schedule: Q01DX009 (ip), vehicle: acetone",93 % of control
same,T/C,"endpoint: mean survival time, dose: 100.0 mg/kg/injection, schedule: Q01DX009 (ip), vehicle: acetone",95 % of control
same,T/C,"endpoint: mean survival time, dose: 100.0 mg/kg/injection, schedule: Q04DX003 (ip), vehicle: acetone",96 % of control
same,T/C,"endpoint: mean survival time, dose: 200.0 mg/kg/injection, schedule: Q01DX009 (ip), vehicle: acetone",93 % of control
same,T/C,"endpoint: mean survival time, dose: 200.0 mg/kg/injection, schedule: Q04DX003 (ip), vehicle: acetone",96 % of control
same,T/C,"endpoint: mean survival time, dose: 400.0 mg/kg/injection, schedule: Q04DX003 (ip), vehicle: acetone",101 % of control
NNC(=O)CCc1ccccc1[N+](=O)[O-],T/C,"endpoint: mean survival time, dose: 40.0 mg/kg/injection, schedule: Q04DX003 (ip), vehicle: saline",108 % of control
same,T/C,[9],93 % of control
same,T/C,[10],98 % of control
same,T/C,[11],96 % of control
same,T/C,[12],101 % of control
O=C1CCC2C3CCC(=O)C3C12 (stereo unspecified),T/C,[9],102 % of control
same,T/C,[11],97 % of control
O=C1CCC(C(=O)O)N1 (stereo unspecified),T/C,"endpoint: mean survival time, dose: 50.0 mg/kg/injection, schedule: Q01DX009 (ip), vehicle: saline with Tween-80",94 % of control
same,T/C,"endpoint: mean survival time, dose: 100.0 mg/kg/injection, schedule: Q01DX009 (ip), vehicle: saline with Tween-80",94 % of control
same,T/C,[13],97 % of control
same,T/C,"endpoint: mean survival time, dose: 200.0 mg/kg/injection, schedule: Q01DX009 (ip), vehicle: saline with Tween-80",86 % of control
same,T/C,[14],91 % of control
Cc1ccc(N)cc1Br,T/C,[6],102 % of control
same,T/C,"endpoint: mean survival time, dose: 100.0 mg/kg/injection, schedule: Q01DX009 (ip), vehicle: saline",100 % of control
same,T/C,[7],94 % of control
same,T/C,"endpoint: mean survival time, dose: 200.0 mg/kg/injection, schedule: Q01DX009 (ip), vehicle: saline",90 % of control
same,T/C,[8],94 % of control
same,T/C,"endpoint: mean survival time, dose: 400.0 mg/kg/injection, schedule: Q01DX009 (ip), vehicle: saline",103 % of control
CCCCCCCCCCCCCCCCCCCCCC(=O)Nc1ccn(C2OC(CO)C(O)C2O)c(=O)n1 (stereo unspecified),T/C,"endpoint: median survival time, dose: 25.0 mg/kg/injection, schedule: Q01DX009 (ip), vehicle: saline with Tween-80",217 % of control
same,T/C,"endpoint: median survival time, dose: 50.0 mg/kg/injection, schedule: Q01DX009 (ip), vehicle: saline with Tween-80",234 % of control
same,T/C,"endpoint: median survival time, dose: 100.0 mg/kg/injection, schedule: Q01DX009 (ip), vehicle: saline with Tween-80",234 % of control
same,T/C,"endpoint: median survival time, dose: 200.0 mg/kg/injection, schedule: Q01DX009 (ip), vehicle: saline with Tween-80",382 % of control
same,T/C,"endpoint: median survival time, dose: 400.0 mg/kg/injection, schedule: Q01DX009 (ip), vehicle: saline with Tween-80",340 % of control
CNC(=O)CCC(=O)NC,T/C,[10],95 % of control
same,T/C,[1],100 % of control
same,T/C,[12],98 % of control
same,T/C,[2],102 % of control
same,T/C,"endpoint: mean survival time, dose: 300.0 mg/kg/injection, schedule: Q04DX003 (ip), vehicle: saline",95 % of control
same,T/C,[3],111 % of control
Nc1ncnc2nc(-c3ccc(Cl)cc3Cl)[nH]c12,T/C,"endpoint: mean survival time, dose: 6.25 mg/kg/injection, schedule: Q01DX001 (ip), vehicle: saline with Tween-80",101 % of control
same,T/C,"endpoint: mean survival time, dose: 12.5 mg/kg/injection, schedule: Q01DX001 (ip), vehicle: saline with Tween-80",106 % of control
same,T/C,"endpoint: mean survival time, dose: 25.0 mg/kg/injection, schedule: Q01DX001 (ip), vehicle: saline with Tween-80",98 % of control
O=C(O)c1cc2ccccc2[nH]1,T/C,[13],95 % of control
same,T/C,[14],95 % of control
same,T/C,"endpoint: mean survival time, dose: 400.0 mg/kg/injection, schedule: Q04DX003 (ip), vehicle: saline with Tween-80",90 % of control
